Results published in US11008551B2, “Method to increase the infectivity of virus particles” (The Trustees of Princeton University, priority 2011, dated 2021).

Tests used:
[1] = tested on: HCMV strain AD169 virions; experiment: Infectivity of gradient purified virions treated with MCβD and/or cholesterol; type: cell-based, human cytomegalovirus (HCMV)
Protocol: Due to the ability to sequester cholesterol in its hydrophobic pocket, methyl-ß-cyclodextrin (MCβD) removes cholesterol from membranes (Christian, Haynes et al. 1997). Thus, in order to directly test the role of virion envelope cholesterol in HCMV infection, purified virions were treated with various concentrations of MCβD to deplete cholesterol.
(§1) Gradient purified HCMV strain AD169 virions were either mock treated or treated with increasing concentrations of MCβD for 30 min at 37° C. MCβD (50 mM) treated virus was incubated in varying concentrations of cholesterol for 30 min at 37° C. Virus (no MCβD treatment) was incubated in varying concentrations of cholesterol for 30 min at 37° C. In all experiments, infectivity (FIG. 5, left panels) and cholesterol content (FIG. 5, right panels) were determined for the treated samples. Infectivity of untreated virus was set to 100%. Virus cholesterol content was determined using the amplexred (Invitrogen) specrofluorometric assay.
(§2) To determine whether the effect of MCβD could be rescued (and is thus reversible), and moreover, to determine if the loss of infectivity was due to cholesterol depletion, exogenous cholesterol was used to replenish the envelopes of MCβD-treated virions by incubating the virus particles with various amounts of free cholesterol.
(§3) To determine if virus infectivity could be increased by increasing virion cholesterol content alone, gradient purified HCMV virions were incubated with increasing concentrations of cholesterol then gradient purified for a second time.

HCMV [2] = experiment: Cholesterol supplementation of serum-starved antibody-treated MRC5 cells, cell-free virus by TCID50; type: cell-based, human cytomegalovirus (HCMV); conditions: serum-starved MRC5 cells also treated with LRP1-specific antibody, 0.1 PFU/cell, 96 hpi
Protocol: (§4) In a second experiment, cells were serum starved for 48 hours then treated with indicated antibodies. 1 hour post antibody treatment, serum-starved, confluent MRC5 cells were treated with various concentrations of cholesterol (+fatty acid-free BSA carrier) for 1 hour then infected at a multiplicity of 0.1 PFU/cell. At 96 hpi, released virus was used to infect new cells. “N” indicates no added cholesterol. Cell-free virus was quantified by a TCID50 assay. Data represents the mean and standard deviation from three independent experiments with three replicates each.

[3] = tested on: HCMV strain AD169 virions; experiment: Virus cholesterol content after MCβD and/or cholesterol treatment, amplex red assay; parameters: species or system human cytomegalovirus (HCMV)
Protocol: as §1
To confirm that MCβD treatment depleted virus of envelope cholesterol, the cholesterol content of MCβD-depleted virus was determined (FIG. 5A, right).
as §2, §3

HCMV strain AD169 = experiment: Acid bypass assay of MCβD-treated virus, IE1 expression at 24 hpi; type: cell-based, human cytomegalovirus (HCMV); conditions: MCβD 50 mM, 3 pfu/cell, pH 4.7 vs 7.4, 24 hpi
Protocol: It is known that infection of host cells by enveloped viruses relies on the fusion of the viral envelope with either an endosomal membrane or the plasma membrane of the cell. Therefore, experiments were designed to test whether infectivity of MCβD-treated virus can be restored by using an “acid bypass assay” (Mercer and Helenius 2008) to circumvent the normal membrane fusion process during virus entry.
Cells were infected with MCβD (50 mM)-treated or mock-treated HCMV strain AD169 at a multiplicity of 3 pfu/cell, allowed to sit at 4° C. for 30 min to allow virus binding, then treated with buffer at a neutral (7.4) or acidic (4.7) pH for 3 min, washed with PBS, and examined for IE1 expression 24 hours later.
HCMV particles, either treated with MCβD or left untreated, were bound to cells at 4° C., then incubated in a low pH buffer (pH 4.7) to artificially induce the fusion event, thus allowing fusion-deficient viruses to enter the cell and replicate. A neutral pH buffer was used as a control. Virus replication after acid bypass was visualized by IE1 expression at 24 hpi (FIG. 6).

HCMV [4] = experiment: Mevastatin treatment of infected MRC5 cells, released virus quantified by TCID50; type: cell-based, human cytomegalovirus (HCMV)
Protocol: In a first experiment, MRC5 cells were left untreated, treated with Mevastatin or mock treated. At 90 minutes post Mevastatin treatment, cells were treated with antibody to LRP1 or tubulin or left untreated. 1 hour post Mevastatin treatment, cells were infected at a multiplicity of 0.1 PFU/cell. At 96 hpi, released virus was used to infect new cells.
as §4

[5] = MCβD (50 mM) treated virus incubated with varying cholesterol, 30 min at 37° C.
[6] = virus without MCβD treatment incubated with increasing cholesterol
[7] = virions treated with increasing MCβD, 30 min at 37° C.

Molecule: CC(C)CCC[C@@H](C)[C@H]1CC[C@H]2[C@@H]3CC=C4C[C@@H](O)CC[C@]4(C)[C@H]3CC[C@]12C [cholesterol]
- HCMV infectivity of MCβD-treated virions [1, 5]: partially restored
- virus infectivity [1, 6]: increased
- production of HCMV infectivity (HCMV [2]): substantially enhanced
- envelope cholesterol content of MCβD-treated virions [3, 5]: partially restored
- overall cholesterol content of virus [3, 6]: increased

Molecule: methyl-ß-cyclodextrin [MCβD]
- ability of treated virus to enter the cell and express IE1 protein after acid bypass (HCMV strain AD169): dramatic difference
- HCMV infectivity [1, 7]: dose-dependent inhibition
- depletion of virion cholesterol ([3]; 50 mM MCβD): 90%
- virus cholesterol content [3, 7]: dose-dependent decrease

Molecule: CC[C@H](C)C(=O)O[C@H]1CCC=C2C=C[C@H](C)[C@H](CC[C@@H]3C[C@@H](O)CC(=O)O3)[C@H]21 [Mevastatin]
- reversal of the increased infectivity caused by inhibition of LRP1 activity (HCMV [4]; MRC5 cells also treated with LRP1 antibody): to a limited extent
- production of infectivity (HCMV [4]; MRC5 cells, 0.1 PFU/cell, 96 hpi, Mevastatin): inhibited the production of infectivity in a dose-dependent manner
